Data from patent publication US12577228B2, “Dihydrocyclopenta-isoquinoline-sulfonamide derivatives compounds” (UCB Biopharma SRL, priority 2019, dated 2026).
Where a name gives a salt, the structure may show the parent alone.

target: T1, IgE-Tb / soluble IgE receptor FcεRIα with a Y131A mutation (Homo sapiens, UniProt P01854, N146Q/N252Q); assay: in vitro FRET assay: binding of IgE-Tb to receptor FcεRIα-Y131A-AF488 and its inhibition by compounds; conditions: 5 nM IgE-Tb, 25 nM FcεRIα-Y131A-AF488, 2 hours at room temperature; read-out: FRET IC50 range
T1 construct: fused on or other part: Terbium chelate (LanthaScreen amine-reactive) on IgE-Fc; Alexa Fluor 488 hydrazide on the oxidised glycans of sFcεRIα; Both are labels and no part of the key
T1 sequence (P01854 104-427 N146Q/N252Q): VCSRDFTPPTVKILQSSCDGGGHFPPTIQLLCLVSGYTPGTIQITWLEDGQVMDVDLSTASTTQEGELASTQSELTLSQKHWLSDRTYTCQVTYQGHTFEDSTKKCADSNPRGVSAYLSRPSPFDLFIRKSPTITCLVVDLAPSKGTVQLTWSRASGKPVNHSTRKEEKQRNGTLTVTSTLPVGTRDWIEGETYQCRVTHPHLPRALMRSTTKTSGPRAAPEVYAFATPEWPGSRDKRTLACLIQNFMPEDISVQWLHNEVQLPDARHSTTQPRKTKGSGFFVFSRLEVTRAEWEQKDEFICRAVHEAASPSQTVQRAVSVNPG
T1 sequence (P12319 26-201 Y156A partner): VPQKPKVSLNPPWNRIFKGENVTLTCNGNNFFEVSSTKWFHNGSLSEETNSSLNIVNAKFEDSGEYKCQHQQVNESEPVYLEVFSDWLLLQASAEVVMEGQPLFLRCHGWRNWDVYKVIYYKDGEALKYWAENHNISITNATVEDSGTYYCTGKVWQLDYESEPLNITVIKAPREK

First: Cn1cc2c(NC3Cc4cc5cnc(C6CC6)cc5c(S(=O)(=O)NCC5(O)COC5)c4C3)cncc2n1 (centres unmarked) [Example 14, 3-cyclopropyl-N-[(3-hydroxyoxetan-3-yl)methyl]-7-[(2-methylpyrazolo[3,4-c]pyridin-4-yl)amino]-7,8-dihydro-6H-cyclopenta[g]isoquinoline-5-sulfonamide]
Second: CC(C)(F)CNS(=O)(=O)c1c2c(cc3cnc(C4CC4)cc13)CC(Nc1ccc(N3CC(C)(O)C3)nc1)C2 (centres unmarked) [Example 27, 3-cyclopropyl-N-(2-fluoro-2-methylpropyl)-7-[[6-(3-hydroxy-3-methylazetidin-1-yl)pyridin-3-yl]amino]-7,8-dihydro-6H-cyclopenta[g]isoquinoline-5-sulfonamide]
The IC50 of the first is lower: 10 to 50 nM for the first, 100 to 2000 nM for the second.

`CC(C)(F)CNS(=O)(=O)c1c2c(cc3cnc(C4CC4)cc13)CN(Cc1ccn[nH]1)C2` [Example 102, 7-cyclopropyl-N-(2-fluoro-2-methylpropyl)-2-(1H-pyrazol-5-ylmethyl)-1,3-dihydropyrrolo[3,4-g]isoquinoline-9-sulfonamide] and `CC(C)(F)CNS(=O)(=O)c1c2c(cc3cnc(C4CC4)cc13)CC(c1cccnc1)C2` (centres unmarked) [Example 110, 3-cyclopropyl-N-(2-fluoro-2-methylpropyl)-7-pyridin-3-yl-7,8-dihydro-6H-cyclopenta[g]isoquinoline-5-sulfonamide] fall in the same range of IC50: 100 to 2000 nM for the first, 100 to 2000 nM for the second.

First: CC(C)CNS(=O)(=O)c1c2c(cc3cnc(C4CC4)cc13)C(O)CC2 (centres unmarked) [Example 47, 3-cyclopropyl-8-hydroxy-N-(2-methylpropyl)-7,8-dihydro-6H-cyclopenta[g]isoquinoline-5-sulfonamide]
Second: CCNc1c(NC2Cc3cc4cnc(C5CC5)cc4c(S(=O)(=O)NCC(C)C)c3C2)c(=O)c1=O (centres unmarked) [Example 53, 3-cyclopropyl-7-[[2-(ethylamino)-3,4-dioxocyclobuten-1-yl]amino]-N-(2-methylpropyl)-7,8-dihydro-6H-cyclopenta[g]isoquinoline-5-sulfonamide]
The IC50 of the first is higher: 100 to 2000 nM for the first, 10 to 50 nM for the second.

Compared with `CC(C)(F)CNS(=O)(=O)c1c2c(cc3cnc(C4CC4)cc13)CC1CC21` (centres unmarked) [Example 107, 13-cyclopropyl-N-(2-fluoro-2-methylpropyl)-12-azatetracyclo[8.4.0.03,8.04,6]tetradeca-1 (10),2,8,11,13-pentaene-2-sulfonamide], `CC(C)(F)CNS(=O)(=O)c1c2c(cc3cnc(C4CC4)cc13)C[C@@H](Nc1ccc(F)nc1)C2` [Example 73, (7R)-3-cyclopropyl-N-(2-fluoro-2-methylpropyl)-7-[(6-fluoropyridin-3-yl)amino]-7,8-dihydro-6H-cyclopenta[g]isoquinoline-5-sulfonamide] is lower in IC50: 100 to 2000 nM for the first, 10 to 50 nM for the second.

First: CC(C)(F)CNS(=O)(=O)c1c2c(cc3cnc(C4CC4)cc13)C[C@@H](NC(=O)c1nccc3ccccc13)C2 [Example 135, N-[(7R)-3-cyclopropyl-5-[(2-fluoro-2-methylpropyl)sulfamoyl]-7,8-dihydro-6H-cyclopenta[g]isoquinolin-7-yl]isoquinoline-1-carboxamide]
Second: CC(=O)Nc1cncc(NC2Cc3cc4cnc(C5CC5)cc4c(S(=O)(=O)NCC(C)(C)F)c3C2)c1 (centres unmarked) [Example 121, N-[5-[[3-cyclopropyl-5-[(2-fluoro-2-methylpropyl)sulfamoyl]-7,8-dihydro-6H-cyclopenta[g]isoquinolin-7-yl]amino]pyridin-3-yl]acetamide]
The IC50 of the first is higher: 100 to 2000 nM for the first, 10 to 50 nM for the second.

`O=S(=O)(NC1CC(F)(F)C1)c1c2c(cc3cnc(C4CC4)cc13)CC(Nc1ccc(C3(O)COC3)nc1)C2` (centres unmarked) [Example 74, 3-cyclopropyl-N-(3,3-difluorocyclobutyl)-7-[[6-(3-hydroxyoxetan-3-yl)pyridin-3-yl]amino]-7,8-dihydro-6H-cyclopenta[g]isoquinoline-5-sulfonamide] and `CC(C)(C)OC(=O)c1ccc(N[C@@H]2Cc3cc4cnc(C5CC5)cc4c(S(=O)(=O)NC4CC(F)(F)C4)c3C2)cn1` [Example 85, tert-butyl 5-[[(7R)-3-cyclopropyl-5-[(3,3-difluorocyclobutyl)sulfamoyl]-7,8-dihydro-6H-cyclopenta[g]isoquinolin-7-yl]amino]pyridine-2-carboxylate] fall in the same range of IC50: 10 to 50 nM for the first, 10 to 50 nM for the second.

Compared with `CC(C)(F)CNS(=O)(=O)c1c2c(cc3cnc(C4CC4)cc13)C[C@@H](Nc1cnc(Cl)cc1-c1nnn[nH]1)C2` [Example 126, (7R)-7-[[6-chloro-4-(1H-tetrazol-5-yl)pyridin-3-yl]amino]-3-cyclopropyl-N-(2-fluoro-2-methylpropyl)-7,8-dihydro-6H-cyclopenta[g]isoquinoline-5-sulfonamide], `Cn1ncc(NC2Cc3cc4cnc(C5CC5)cc4c(S(=O)(=O)NCC(C)(C)F)c3C2)cc1=O` (centres unmarked) [Example 140, 3-cyclopropyl-N-(2-fluoro-2-methylpropyl)-7-[(1-methyl-6-oxopyridazin-4-yl)amino]-7,8-dihydro-6H-cyclopenta[g]isoquinoline-5-sulfonamide] is lower in IC50: 100 to 2000 nM for the first, 10 to 50 nM for the second. The second is the more potent here.

`Cc1nnc(-c2ccc(N[C@@H]3Cc4cc5cnc(C6CC6)cc5c(S(=O)(=O)NCC(C)(C)F)c4C3)cc2)o1` [Example 70, (7R)-3-cyclopropyl-N-(2-fluoro-2-methylpropyl)-7-[4-(5-methyl-1,3,4-oxadiazol-2-yl)anilino]-7,8-dihydro-6H-cyclopenta[g]isoquinoline-5-sulfonamide] and `Cn1ccc(NC2Cc3cc4cnc(C5CC5)cc4c(S(=O)(=O)NCC(C)(C)F)c3C2)cc1=O` (centres unmarked) [Example 96, 3-cyclopropyl-N-(2-fluoro-2-methyl-propyl)-7-[(1-methyl-2-oxo-4-pyridyl)amino]-7,8-dihydro-6H-cyclopenta[g]isoquinoline-5-sulfonamide; formate salt] fall in the same range of IC50: 10 to 50 nM for the first, 10 to 50 nM for the second.

`CC(C)(F)CNS(=O)(=O)c1c2c(cc3c(F)nc(C4CC4)cc13)CC(Nc1ccc(C(N)=O)nc1)C2` (centres unmarked) [Example 23, 5-[[3-cyclopropyl-1-fluoro-5-[(2-fluoro-2-methyl-propyl)sulfamoyl]-7,8-dihydro-6H-cyclopenta[g]isoquinolin-7-yl]amino]pyridine-2-carboxamide] and `Cn1ncc(NC2Cc3cc4c(F)nc(C5CC5)cc4c(S(=O)(=O)NCC(C)(C)F)c3C2)cc1=O` (centres unmarked) [Example 29, 3-cyclopropyl-1-fluoro-N-(2-fluoro-2-methyl-propyl)-7-[(1-methyl-6-oxo-pyridazin-4-yl)amino]-7,8-dihydro-6H-cyclopenta[g]isoquinoline-5-sulfonamide] fall in the same range of IC50: 10 to 50 nM for the first, 10 to 50 nM for the second.

`CCOC(=O)c1ncn([C@H]2Cc3cc4cnc(C5CC5)cc4c(S(=O)(=O)NCC(C)(C)F)c3C2)c1N` [Example 8, ethyl 5-amino-1-[(7S)-3-cyclopropyl-5-[(2-fluoro-2-methylpropyl)sulfamoyl]-7,8-dihydro-6H-cyclopenta[g]isoquinolin-7-yl]imidazole-4-carboxylate] and `Cc1cc(Nc2nncn2C2Cc3cc4cnc(C5CC5)cc4c(S(=O)(=O)NCC(C)(C)F)c3C2)n(C)n1` (centres unmarked) [Example 57, 3-cyclopropyl-7-[3-[(2,5-dimethylpyrazol-3-yl)amino]-1,2,4-triazol-4-yl]-N-(2-fluoro-2-methylpropyl)-7,8-dihydro-6H-cyclopenta[g]isoquinoline-5-sulfonamide] fall in the same range of IC50: 100 to 2000 nM for the first, 100 to 2000 nM for the second.
